Measurements published in ChEMBL document CHEMBL1139055, “Structure-activity relationships of pentacycloundecylamines at the N-methyl-d-aspartate receptor” (Bioorg Med Chem, 2007).
The source made the active and inactive calls. The rule behind the calls is not given here.

Tests used:
[1] = Antagonist activity at NMDA receptor in ICR mouse synaptoneurosome assessed as inhibition of NMDA/Gly-mediated 45-calcium influx; assay type: functional
[2] = species: Mus musculus; assay: Displacement of [3H]TCP from NMDA receptor in ICR mouse synaptoneurosome at 100 uM
[3] = Antagonist activity at NMDA receptor in ICR mouse synaptoneurosome assessed as inhibition of NMDA/Gly-mediated 45-calcium influx at 2 uM relative to control; assay type: functional
[4] = species: Mus musculus; assay: Displacement of [3H]glutamate from NMDA receptor in ICR mouse synaptoneurosome
[5] = species: Mus musculus; assay: Displacement of [3H]MK-801 from NMDA receptor in ICR mouse synaptoneurosome at 100 uM

c1ccc(CNC23OC4C5C6CC(C7C6C4C72)C53)cc1 (configuration not stated)
IC50 [1]: 2.98 µM
Activity [2]: 20%
Inhibition [3]: 108.9%
Activity [4]: inactive
Activity [5]: inactive

COc1cccc(CNC23OC4C5C6CC(C7C6C4C72)C53)c1 (configuration not stated)
IC50 [1]: 20.7 µM

c1ccc(CCNC23OC4C5C6CC(C7C6C4C72)C53)cc1 (configuration not stated)
IC50 [1]: 23.5 µM
Activity [2]: 44%
Activity [5]: inactive

OC12CC3C4C5CC6C4C3C1C(NCc1ccccc1)C6C52 (configuration not stated)
IC50 [1]: 36.2 µM

O=[N+]([O-])c1cccc(CNC23OC4C5C6CC(C7C6C4C72)C53)c1 (configuration not stated)
IC50 [1]: 32.8 µM

O=[N+]([O-])c1ccccc1CNC12OC3C4C5CC(C6C5C3C61)C42 (configuration not stated)
IC50 [1]: 37.6 µM

NC1C2C3CC4C1C1C2CC3C41 (configuration not stated)
IC50 [1]: 4.06 µM
Activity [2]: inactive
Activity [4]: inactive
Activity [5]: inactive

CC12CC3CC(C)(C1)CC(N)(C3)C2 [MEMANTINE]
IC50 [1]: 3.05 µM
Activity [2]: 67%
Activity [5]: 90%

C[C@]12N[C@H](Cc3ccccc31)c1ccccc12 [DIZOCILPINE]
IC50 [1]: 1.23 µM
Activity [2]: 65%
Activity [5]: 73%
